Measurements as given in US11992535B2, “Compounds and probes for imaging huntingtin protein” (CHDI Foundation, Inc., priority 2019, dated 2024).
Read-outs that look alike come from different tables or passages of the source.

Biological target: aggregated MBP-HTT(1-89)Q46-His(6×) (Exonl-Q46) protein (Q46 protein aggregates) (Homo sapiens (Human), UniProt P42858, INS38QQQQQQQQQQQQQQQQQQQQQQQQQ)
Assay: Q46 Radioligand Binding Assay
Details: read-out: Q46_RBA EC50_
Method: Q46 Radioligand Binding Assay
For radioligand binding assays (RBA) MBP-HTT(1-89)Q46-His(6×) (“Exonl-Q46”) protein was generated based on a previous publication (Scherzinger et al. Cell, Vol. 90, 549-558, Aug. 8, 1997). For experiments 30 μM MBP-Exonl-Q46 was incubated with 150 μg/mL thrombin in assay buffer (150 mM NaCl, 50 mM Tris pH 8.0) and 2 mM CaCl2 for 16 hours at 37° C. Aggregated Exonl-Q46 was pelleted by centrifugation for 5 minutes at 13,000 rpm in a bench top centrifuge and re-dissolved in the same volume of assay buffer. Test compounds were prepared by titration in DMSO at 11 concentrations from 63 μM to 2 nM. For the RBA, Q46 protein aggregates and test compounds were pre-incubated in assay buffer for 20 minutes at room temperature, in 100 μL/well in a 96-well plate (pp, round bottom). Then, ligand was added in 50 μL/well and incubated for 60 minutes at 37° C. Final assay concentrations were 1 μM to 30 μM test compound, 1 μM Exonl-Q46 protein (equivalent monomer concentration) and 0.3 nM ligand [^3H3-methyl]-5-((5-methoxypyridin-2-yl)methoxy)-2-(pyrazin-2-yl)benzo[d]oxazole. Samples were transferred onto GF/B filter plates and washed 2× with 200 μL PBS using a Filtermate Harvester. After drying filter plates for 1 hour at 55° C., the back of the plates were sealed with foil and 30 μL/well scintillation fluid (Packard MicroScint 40) added, incubated for 15 minutes in the dark and counted in a MicroBeta reader. For analysis, replicate data from independent assay plates were normalized towards 0% and 100% inhibition using control wells of vehicle (0% inhibition) and 1 μM unlabelled [^3H3-methyl]-5-((5-methoxypyridin-2-yl)methoxy)-2-(pyrazin-2-yl)benzo[d]oxazole (100% inhibition). IC50 values were determined with a sigmoidal inhibition model with four variables (top, bottom, slope, IC50) in a global fit using the normalized replicate data.

[1] = displacement of 0.3 nM [3H3-methyl]-5-((5-methoxypyridin-2-yl)methoxy)-2-(pyrazin-2-yl)benzo[d]oxazole from 1 μM Exonl-Q46 aggregates, method calls the values IC50
[2] = same radioligand displacement on Exonl-Q46 aggregates

aggregated MBP-HTT(1-89)Q46-His(6×) (Exonl-Q46) protein (Q46 protein aggregates), sequence (P42858 other isoform, or with tags, fused parts or gaps, stated change not applied): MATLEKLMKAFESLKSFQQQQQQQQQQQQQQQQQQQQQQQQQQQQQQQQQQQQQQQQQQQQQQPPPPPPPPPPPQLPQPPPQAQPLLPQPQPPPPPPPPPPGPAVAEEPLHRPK

Row | SMILES | EC50 [1] [nM] | EC50 [2] [nM]
1 | COc1ccc(COc2ccc3c(c2)CN(C(=O)OCC(C)C)CC3)nc1 [Example 33, 2-Methylpropyl 7-[(5-methoxypyridin-2-yl)methoxy]-1,2,3,4-tetrahydroisoquinoline-2-carboxylate] | 36.5 | < 100
2 | COc1ccc(COc2ccc3c(c2)CN(C(=O)c2ccc(OCCF)nc2)CC3)nc1 [Example 34, (6-(2-Fluoroethoxy)pyridin-3-yl)(7-((5-methoxypyridin-2-yl)methoxy)-3,4-dihydroisoquinolin-2(1H)-yl)methanone] | 2.48 | < 100
3 | COc1ccc(COc2ccc3c(c2)CN(C(=O)c2ccc(=O)n(CCF)c2)CC3)nc1 [Example 34.1] | 5.12 | < 100
4 | C=CCOc1ccc(COc2ccc3c(c2)CN(C(=O)c2ccc(OC)nc2)CC3)nc1 [Example 35, (7-((5-(Allyloxy)pyridin-2-yl)methoxy)-3,4-dihydroisoquinolin-2(1H)-yl)(6-methoxypyridin-3-yl)methanone] | 1.05 | < 100
5 | COc1ccc(C(=O)N2CCc3ccc(OCc4ccc(O)cn4)cc3C2)cn1 [Example 35.1, (7-((5-Hydroxypyridin-2-yl)methoxy)-3,4-dihydroisoquinolin-2(1H)-yl)(6-methoxypyridin-3-yl)methanone] | 8.44 | < 100
6 | COc1ccc(COc2ccc3c(c2)CN(C(=O)c2ccc(OCF)nc2)CC3)nc1 [Example 36, (6-(Fluoromethoxy)pyridin-3-yl)(7-((5-methoxypyridin-2-yl)methoxy)-3,4-dihydroisoquinolin-2(1H)-yl)methanone] | 1.96 | < 100

Continued, values first:

Row | EC50 [1] [nM] | EC50 [2] [nM] | SMILES
7 | 2.6 | < 100 | COc1ccc(C(=O)N2CCc3ccc(OCc4ccc(OCF)cn4)cc3C2)cn1 [Example 37, (7-((5-(Fluoromethoxy)pyridin-2-yl)methoxy)-3,4-dihydroisoquino-lin-2(1H)-yl)(6-methoxypyridin-3-yl)methanone]
8 | 1.25 | < 100 | COc1ccc(C(=O)N2CCc3ccc(OCc4ccc(OCCF)cn4)cc3C2)cn1 [Example 38, (7-((5-(2-Fluoroethoxy)pyridin-2-yl)methoxy)-3,4-dihydroisoquino-lin-2(1H)-yl)(6-methoxypyridin-3-yl)methanone]
9 | 12 | < 100 | COc1ccc(COc2ccc3c(c2)CN(C(=O)c2ccc(=O)[nH]c2)CC3)nc1 [Example 39, 5-(7-((5-Methoxypyridin-2-yl)methoxy)-1,2,3,4-tetrahydroisoquinoline-2-carbonyl)pyridin-2(1H)-one]
10 | 333 | 100 to 500 | Cn1cc(C(=O)N2CCc3ccc(OCc4ccc(O)cn4)cc3C2)ccc1=O [Example 40, 5-(7-((5-Hydroxypyridin-2-yl)methoxy)-1,2,3,4-tetrahydroisoquinoline-2-carbonyl)-1-methylpyridin-2(1H)-one]
11 | 23.5 | < 100 | COc1ccc(COc2ccc3c(c2)CN(C(=O)c2ccc(=O)n(C)c2)CC3)nc1 [Example 41, 5-(7-((5-Methoxypyridin-2-yl)methoxy)-1,2,3,4-tetrahydroisoquin-oline-2-carbonyl)-1-methylpyridin-2(1H)-one]
